One assay has as its system Candida albicans. Put plainly: Antifungal activity against Candida albicans. The class given is functional.
A short description of assay [1]: Antifungal activity against Trichophyton mentagrophytes. The class given is functional, Trichophyton mentagraphytes. As to conditions: Trichophyton benhamiae.
For another assay, the system named is Aspergillus fumigatus. Put plainly: Antifungal activity against Aspergillus fumigatus. The format is functional.
The subject of assay [2] is Cryptococcus neoformans. Put plainly: Antifungal activity against Cryptococcus neoformans. The class given is functional.
A further assay has as its system Microsporum canis. In words: Antifungal activity against Microsporum canis. The class given is functional.
The test system of assay [3] is Rattus norvegicus. In words: Anticancer activity against Walker 256 carcinoma in rat after administration of 10 mg/kg; Activity expressed as % T/C (Active). The class given is functional.
For assay [4], the system named is Rattus norvegicus. Put plainly: Anticancer activity against Walker 256 carcinoma cells in rat after administration of 10 mg/kg; Activity expressed as survivors out of 4 rats (Active). The format is functional.
The next assay concerns Sporothrix schenckii. In words: Antifungal activity against Sporotrichum schenckii.
For assay [5], the system named is Cryptococcus neoformans. Put plainly: Antifungal activity against C. neoformans; No activity. The class given is functional.
The next assay relates to Tolypocladium inflatum. Put plainly: Antifungal activity against Sporotrichum schenckii. The class given is functional. As to conditions: sporotrichum scenckii.

In brackets after ≈: the same amount, converted by molar mass.

Turning to `O=C1c2sc3nccn3c2C(=O)c2c(Cl)ccc(O)c21`, the minimal inhibitory concentration (MIC) was 25 µg/mL (≈ 82 µM) with Candida albicans; 6.25 µg/mL (≈ 20.5 µM) in assay [1]; 3.1 µg/mL (≈ 10.2 µM) in the assay with Aspergillus fumigatus; 6.25 µg/mL (≈ 20.5 µM) in the assay on Cryptococcus neoformans [2]; 6.25 µg/mL (≈ 20.5 µM) against Microsporum canis.

Take `Clc1ccc(COC(Cn2ccnc2)c2ccc(Cl)cc2Cl)c(Cl)c1` (stereo unspecified) [MICONAZOLE]: the MIC is 25 µg/mL (≈ 60.1 µM) against Candida albicans; at most 0.78 µg/mL in assay [1]; 12.5 µg/mL (≈ 30 µM) against Aspergillus fumigatus; 12.5 µg/mL (≈ 30 µM) against Cryptococcus neoformans [2]; at most 0.78 µg/mL in the assay on Microsporum canis.

For `CC1=CC(=O)c2c(O)ccc(O)c2C1=O`, the T/C in the assay on Rattus norvegicus [3] was determined as 23%. Moreover, the Survivors in the assay with Rattus norvegicus [4] came to 4.

Consider `O=C1c2sc3nccn3c2C(=O)c2c(O)ccc(O)c21`, for which the MIC in the assay with Candida albicans is 25 µg/mL (≈ 87.3 µM); in assay [1] it was 25 µg/mL (≈ 87.3 µM); against Sporothrix schenckii it was under 12.5 µg/mL; in the assay on Cryptococcus neoformans [2], under 12.5 µg/mL; in the assay on Microsporum canis, 25 µg/mL (≈ 87.3 µM).

In turn, `O=C1C=CC(=O)c2c(O)ccc(O)c21` [NAPHTHAZALIN] registered a T/C in the assay with Rattus norvegicus [3] of 37%. In the assay on Rattus norvegicus [4], this compound displayed a Survivors of 3 µg/mL.

Regarding `O=C1C=C(Sc2ccccc2)C(=O)c2ccccc21`, the minimum inhibitory concentration (MIC) in the assay with Candida albicans was 12.5 µg/mL (≈ 46.9 µM); in assay [1] it was under 0.78 µg/mL; in the assay on Aspergillus fumigatus it was 25 µg/mL (≈ 93.9 µM); against Cryptococcus neoformans [2], 1.56 µg/mL (≈ 5.86 µM); with Microsporum canis, under 0.98 µg/mL.

Turning to `O=C1C(CO)=C(Sc2ccccc2)C(=O)c2ccccc21`, the minimum inhibitory concentration (MIC) in the assay with Candida albicans was 25 µg/mL (≈ 84.4 µM); in assay [1], 1.56 µg/mL (≈ 5.26 µM); in the assay on Aspergillus fumigatus, under 0.78 µg/mL; against Cryptococcus neoformans [2], 1.56 µg/mL (≈ 5.26 µM); with Microsporum canis, 1.56 µg/mL (≈ 5.26 µM).

On to `C[C@@H]1[C@H](O)[C@@H](C)/C=C/C=C/C=C/C=C/C=C/C=C/C=C/[C@H](O[C@@H]2O[C@H](C)[C@@H](O)[C@H](N)[C@@H]2O)C[C@@H]2O[C@](O)(C[C@@H](O)C[C@@H](O)[C@H](O)CC[C@@H](O)C[C@@H](O)CC(=O)O[C@H]1C)C[C@H](O)[C@H]2C(=O)O` [AMPHOTERICIN B], for which the minimal inhibitory concentration (MIC) in the assay on Candida albicans was found to be 0.39 µg/mL (≈ 0.422 µM); in [1], 1.56 µg/mL (≈ 1.69 µM); against Cryptococcus neoformans [2] it was 0.78 µg/mL (≈ 0.844 µM); against Microsporum canis, 1.56 µg/mL (≈ 1.69 µM).

On to `O=C(O)CCSC1=CC(=O)c2c(O)ccc(O)c2C1=O`, for which the MIC in the assay on Candida albicans is 3.12 µg/mL (≈ 10.6 µM); in assay [1] it was 3.12 µg/mL (≈ 10.6 µM); in the assay with Cryptococcus neoformans [5], 1.56 µg/mL (≈ 5.3 µM); with Microsporum canis, 3.12 µg/mL (≈ 10.6 µM).

Regarding NYSTATIN, the MIC in the assay with Candida albicans was determined as 7.9 µg/mL; against Cryptococcus neoformans [2], 3.9 µg/mL; in the assay with Tolypocladium inflatum, 13.2 µg/mL.

As for `O=C1c2ccccc2C(=O)c2c1sc1nccn21`, the MIC against Candida albicans was 50 µg/mL (≈ 197 µM); in assay [1] it was 25 µg/mL (≈ 98.3 µM); in the assay with Aspergillus fumigatus, 25 µg/mL (≈ 98.3 µM); in the assay with Sporothrix schenckii, 25 µg/mL (≈ 98.3 µM); against Cryptococcus neoformans [2] it was 12.5 µg/mL (≈ 49.2 µM); with Microsporum canis it was 25 µg/mL (≈ 98.3 µM).

As a reminder, the MIC is the lowest concentration that inhibits growth of the organism. A low value points to inhibition by little substance. Broadly, the T/C is the result in the treated group divided by that in the control group, in per cent.
